According to ChEMBL document CHEMBL6078667, “Synthesis, Biological Evaluation, and Mechanistic Insights of Rubrolide Analogues as Antitumor Agents” (J Nat Prod, 2024):
The source made the active and inactive calls. The calls are words filed in the database; no cut-off is given here.

Key:
HCT-116 [1] = experiment: Cytotoxicity against human HCT-116 cells assessed as inhibition of cell growth at 10 uM measured after 72 hrs by MTT assay relative to control; assay type: functional
MGC-803 = experiment: Cytotoxicity against human MGC-803 cells assessed as inhibition of cell growth at 10 uM measured after 72 hrs by MTT assay relative to control; assay type: functional
HeLa [2] = experiment: Cytotoxicity against human HeLa cells assessed as inhibition of cell growth at 10 uM measured after 72 hrs by MTT assay relative to control; assay type: functional
HeLa [3] = experiment: Cytotoxicity against human HeLa cells assessed as inhibition of cell growth incubated for 72 hrs by MTT assay; assay type: functional, cell-based
MKN-45 = experiment: Cytotoxicity against human MKN-45 cells assessed as inhibition of cell growth incubated for 72 hrs by MTT assay; assay type: functional, cell-based; conditions: MKN-45, 72 h
[4] = Cytotoxicity against HHL-5 cells assessed as inhibition of cell growth incubated for 72 hrs by MTT assay; assay type: toxicity, cell-based; conditions: human
HeLa [5] = experiment: Induction of apoptosis in human HeLa cells assessed as necrotic cells at 0.2 uM incubated for 24 hrs by Annexin V-FITC/PI staining based flow cytometric analysis (reference value: 0.44 %); assay type: functional
HeLa [6] = experiment: Induction of apoptosis in human HeLa cells assessed as viable cells at 0.4 uM incubated for 24 hrs by Annexin V-FITC/PI staining based flow cytometric analysis (reference value: 90.6 %); assay type: functional; conditions: read-out: Activity
HCT-116 [7] = experiment: Induction of apoptosis in human HCT-116 cells assessed as viable cells at 0.2 uM incubated for 24 hrs by Annexin V-FITC/PI staining based analysis (reference value: 92.4 %); assay type: functional; conditions: read-out: Activity
HCT-116 [8] = experiment: Induction of apoptosis in human HCT-116 cells assessed as necrotic cells at 0.2 uM incubated for 24 hrs by Annexin V-FITC/PI staining based analysis (reference value: 0.083 %); assay type: functional
HCT-116 [9] = experiment: Induction of apoptosis in human HCT-116 cells assessed as viable cells at 0.4 uM incubated for 24 hrs by Annexin V-FITC/PI staining based analysis (reference value: 92.4 %); assay type: functional; conditions: read-out: Activity
HCT-116 [10] = experiment: Induction of apoptosis in human HCT-116 cells assessed as necrotic cells at 0.4 uM incubated for 24 hrs by Annexin V-FITC/PI staining based analysis (reference value: 0.083 %); assay type: functional
[11] = Drug localization in human HeLa cell mitochondria incubated for 8 hrs by Mito-tracker green dye based fluorescence microscopic analysis; assay type: ADME
HeLa [12] = experiment: Upregulation of phosphorylated PERK expression in human HeLa cells at 0.2 to 0.4 uM measured after 48 hrs by Western blot analysis; assay type: functional, cell-based; conditions: dose 0.2-0.4 µM
HeLa [13] = experiment: Upregulation of phosphorylated eIF2alpha expression in human HeLa cells at 0.2 to 0.4 uM measured after 48 hrs by Western blot analysis; assay type: functional, cell-based; conditions: dose 0.2-0.4 µM
HeLa [14] = experiment: Induction of ROS production in human HeLa cells at 0.2 to 0.4 uM incubated for 24 hrs by DCFH-DA probe based flow cytometric analysis; assay type: functional, cell-based; conditions: dose 0.2-0.4 µM
HeLa [15] = experiment: Induction of ROS production in human HeLa cells assessed as fold change at 0.2 to 0.4 uM incubated for 24 hrs by DCFH-DA probe based flow cytometric analysis; assay type: functional; conditions: dose 0.2-0.4 µM
HeLa [16] = experiment: Cell cycle arrest in human HeLa cells assessed as accumulation of cells at G2/M phase at 0.2 uM measured after 24 hrs by PI staining based flow cytometric analysis (reference value: 22.8 %); assay type: functional
HCT-116 [17] = experiment: Cell cycle arrest in human HCT-116 cells assessed as accumulation of cells at G0/G1 phase at 0.2 uM measured after 24 hrs by PI staining based flow cytometric analysis (reference value: 51.3 %); assay type: functional
HCT-116 [18] = experiment: Cell cycle arrest in human HCT-116 cells assessed as accumulation of cells at G0/G1 phase at 0.4 uM measured after 24 hrs by PI staining based flow cytometric analysis (reference value: 51.3 %); assay type: functional
HCT-116 [19] = experiment: Cell cycle arrest in human HCT-116 cells assessed as accumulation of cells at G2/M phase at 0.4 uM measured after 24 hrs by PI staining based flow cytometric analysis (reference value: 26.4 %); assay type: functional
HCT-116 [20] = experiment: Cell cycle arrest in human HCT-116 cells assessed as increase in cyclin B1 expression at 0.2 to 0.4 uM incubated for 24 hrs by Western blot analysis; assay type: functional, cell-based; conditions: dose 0.2-0.4 µM
HeLa [21] = experiment: Antitumor activity against human HeLa cells xenografted in female BALB/c nude mouse assessed as reduction in tumor cell volume at 20 mg/kg, ip administered as liposome formulation once daily for 13 days relative to control; assay type: functional; set-up: scale not given: the % may be the effect or the level left; conditions: time 13 day
[22] = Toxicity in female BALB/c nude mouse xenografted with human HeLa cells assessed as animal survival at 20 mg/kg, ip administered as liposome formulation once daily for 13 days; assay type: organism-based; conditions: in vivo, 312 h, time 13 day
[23] = Toxicity in female BALB/c nude mouse xenografted with human HeLa cells assessed as body weight loss at 5 to 20 mg/kg, ip administered as liposome formulation once daily for 13 days; assay type: organism-based; conditions: in vivo, 312 h, dose 5-20 mg/kg, time 13 day

With `COc1ccc(C2=CC(=O)O/C2=C\c2ccc(O)cc2)cc1` the inhibition at 10 µM (HCT-116 [1]) was > 50%, the inhibition at 10 µM (MGC-803) was > 50% and the inhibition at 10 µM (HeLa [2]) was > 50%. The IC50 (HeLa [3]) was 200 nM, the IC50 (MKN-45) was 200 nM and the IC50 at 72 h [4] was 6300 nM. The Activity (HeLa [5]) was 0.44%, the viability at 0.4 µM (HeLa [6]) was 47.9% and the viability at 0.2 µM (HCT-116 [7]) was 82.7%. The Activity (HCT-116 [8]) was 5.89%, the viability at 0.4 µM (HCT-116 [9]) was 69.6% and the Activity (HCT-116 [10]) was 7.38%. For the same molecule, the Drug uptake [11] was “Not_active”, the Activity (HeLa [12]) was “Active; Compound Impacts Endoplasmic Reticulum Stress Related Perk-Eif2Alpha-Chop Signalling Pathway” and the Activity (HeLa [13]) was “Active; Compound Impacts Endoplasmic Reticulum Stress Related Perk-Eif2Alpha-Chop Signalling Pathway”. The Activity (HeLa [14]) was “Active”, the “fold change (FC)” value (HeLa [15]) was >4 and the Activity (HeLa [16]) was 58.6%. For the same molecule, the Activity (HCT-116 [17]) was 38.8%, the Activity (HCT-116 [18]) was 23.2% and the Activity (HCT-116 [19]) was 31.6%. For the same molecule, the Activity (HCT-116 [20]) was “Active”, the Activity (HeLa [21]) was >60% and the Activity [22] was “Non-toxic”. The Activity [23] was “Non-toxic”.
